Test results as given in ChEMBL document CHEMBL1122915, “Synthesis and biological activity of carboxylic acid replacement analogues of the potent angiotensin converting enzyme inhibitor 5(S)-benzamido-4-oxo-6-phenylhexanoyl-L-proline” (J Med Chem, 1985).

biological target: T1, Angiotensin-converting enzyme (Rattus norvegicus, UniProt P47820); assay: In vivo inhibitory activity against Angiotensin I converting enzyme was evaluated in renal hypertensive rats; type: organism-based; conditions: read-out: I50
T1 sequence (P47820 whole entry): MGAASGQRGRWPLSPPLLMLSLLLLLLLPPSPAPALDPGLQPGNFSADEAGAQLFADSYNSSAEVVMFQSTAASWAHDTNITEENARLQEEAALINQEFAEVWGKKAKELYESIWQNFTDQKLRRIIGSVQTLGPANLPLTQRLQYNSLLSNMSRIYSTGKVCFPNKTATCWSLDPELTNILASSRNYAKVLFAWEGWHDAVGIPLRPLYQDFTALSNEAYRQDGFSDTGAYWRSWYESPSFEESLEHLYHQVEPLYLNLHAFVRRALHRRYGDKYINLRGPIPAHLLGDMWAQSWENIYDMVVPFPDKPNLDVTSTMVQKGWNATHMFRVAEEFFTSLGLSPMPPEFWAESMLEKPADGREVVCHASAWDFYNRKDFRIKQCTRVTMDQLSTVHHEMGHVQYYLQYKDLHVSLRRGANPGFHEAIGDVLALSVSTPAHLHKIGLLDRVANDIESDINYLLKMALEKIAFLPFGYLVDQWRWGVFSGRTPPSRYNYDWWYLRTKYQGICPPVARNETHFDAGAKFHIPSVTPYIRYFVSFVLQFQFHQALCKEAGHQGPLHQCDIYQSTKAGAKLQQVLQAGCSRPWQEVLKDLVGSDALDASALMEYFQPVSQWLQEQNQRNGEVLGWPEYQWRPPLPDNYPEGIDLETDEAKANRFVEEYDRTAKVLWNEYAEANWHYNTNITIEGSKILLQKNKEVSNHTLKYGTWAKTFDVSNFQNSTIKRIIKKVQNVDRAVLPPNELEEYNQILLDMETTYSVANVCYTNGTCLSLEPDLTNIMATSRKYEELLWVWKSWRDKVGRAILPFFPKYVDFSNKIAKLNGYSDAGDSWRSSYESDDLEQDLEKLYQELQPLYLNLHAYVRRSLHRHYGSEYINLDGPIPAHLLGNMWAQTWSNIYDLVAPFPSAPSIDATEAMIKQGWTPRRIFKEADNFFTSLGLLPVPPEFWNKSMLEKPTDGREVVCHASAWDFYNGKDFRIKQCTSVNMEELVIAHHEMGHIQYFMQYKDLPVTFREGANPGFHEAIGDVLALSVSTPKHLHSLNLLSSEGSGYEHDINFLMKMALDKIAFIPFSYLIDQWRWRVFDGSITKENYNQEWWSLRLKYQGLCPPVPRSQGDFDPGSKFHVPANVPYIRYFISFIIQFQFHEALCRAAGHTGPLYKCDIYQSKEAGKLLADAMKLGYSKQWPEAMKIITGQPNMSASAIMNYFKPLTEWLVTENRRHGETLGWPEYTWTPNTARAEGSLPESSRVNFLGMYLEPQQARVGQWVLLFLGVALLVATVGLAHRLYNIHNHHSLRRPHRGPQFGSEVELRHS

| SMILES | IC50 [nM] |
| --- | --- |
| O=C(O)[C@@H]1CCCN1C(=O)CCS | 200 |
| C[C@@H](CS)C(=O)N1CCC[C@H]1c1nn[nH]n1 | 260 |
| O=C(CCS)N1CCCC1P(=O)(O)O (centres undefined) | 1700 |
| C[C@@H](CS)C(=O)N1CCC[C@H]1C(=O)NO | 22 |
